The values below come from BindingDB's records for doi:10.1021/np8001628 (University of Utah, 2008).

Structures can show the parent of a compound that is named as a salt.

Sequence of Transcription factor p65 (Q04206 whole entry): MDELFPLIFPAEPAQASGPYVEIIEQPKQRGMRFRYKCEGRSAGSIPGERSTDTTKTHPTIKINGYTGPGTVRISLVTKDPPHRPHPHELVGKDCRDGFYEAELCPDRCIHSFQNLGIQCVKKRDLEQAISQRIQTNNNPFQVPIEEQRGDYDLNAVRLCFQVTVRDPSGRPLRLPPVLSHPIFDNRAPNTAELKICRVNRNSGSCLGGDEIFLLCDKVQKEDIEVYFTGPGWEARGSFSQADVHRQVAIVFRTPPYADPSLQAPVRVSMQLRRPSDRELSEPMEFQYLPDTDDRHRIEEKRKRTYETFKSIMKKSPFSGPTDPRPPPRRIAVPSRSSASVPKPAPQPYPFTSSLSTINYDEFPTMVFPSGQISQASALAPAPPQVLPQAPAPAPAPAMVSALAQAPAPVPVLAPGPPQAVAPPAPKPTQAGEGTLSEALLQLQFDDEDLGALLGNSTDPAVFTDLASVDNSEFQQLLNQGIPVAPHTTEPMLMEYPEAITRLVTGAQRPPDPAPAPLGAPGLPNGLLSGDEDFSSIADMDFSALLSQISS

This test has as its target Transcription factor p65 (Human, UniProt Q04206). Kind of test: Inhibition of IL1-induced NF-kappaB P65 activation in human osteoarthritic primary chondrocytes preincubated 2 hrs before addition of IL1 by ELISA. In general terms: ELISA stands for enzyme-linked immunosorbent assay.
With `C=C(C)C(CC)CC[C@@H](C)[C@H]1CC[C@@]2(C)[C@@H]3C[C@H](OS(=O)(=O)O)[C@H]4[C@@H](O)[C@H](OS(=O)(=O)O)[C@@H](OS(=O)(=O)O)C[C@]4(C)C3=CC[C@]12C` (some centres undefined) [Spheciosterol sulfate A], the EC50 is 12 µM.
The value for `C=C(C)C(CC[C@@H](C)[C@H]1CC[C@@]2(C)[C@@H]3C[C@H](OS(=O)(=O)O)[C@H]4[C@@H](O)[C@H](OS(=O)(=O)O)[C@@H](OS(=O)(=O)O)C[C@]4(C)C3=CC[C@]12C)C(C)C` (some centres undefined) [Spheciosterol sulfate B] was 12 µM.
Consider `C=C(C)C(C)(C)C(C)CC[C@@H](C)[C@H]1CC[C@@]2(C)[C@@H]3C[C@H](OS(=O)(=O)O)[C@H]4[C@@H](O)[C@H](OS(=O)(=O)O)[C@@H](OS(=O)(=O)O)C[C@]4(C)C3=CC[C@]12C` (some centres undefined) [Spheciosterol sulfate C], for which the response was half-maximal at 12 µM (EC50).
The value for `CC(C)C1(CC[C@@H](C)[C@H]2CC[C@@]3(C)[C@@H]4C[C@H](OS(=O)(=O)O)[C@H]5[C@@H](O)[C@H](OS(=O)(=O)O)[C@@H](OS(=O)(=O)O)C[C@]5(C)C4=CC[C@]23C)CC1C` (some centres undefined) [Topsentiasterol sulfate E] was 12 µM.

For orientation: EC50 means the concentration giving half of the maximal effect. A high value points to lower potency in that assay.
